One assay addresses CAAX farnesyltransferase (Rattus norvegicus, UniProt Q02293+Q04631). In words: In vitro inhibition of CAAX farnesyltransferase. Further details: purified to homogeneity from rat brain homogenates; from tissue; host or cells: rat brain; alternatively recombinant enzyme from a baculovirus expression system. To be noted: Table D. Type of assay: biochemical. In short, it runs like this:
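Native or recombinant (baculovirus-infected cells, Q-Sepharose purified) farnesyltransferase incubated 30 min at 37 °C. [3H]farnesyl transfer to p21H-ras measured by SDS/trichloroacetic acid precipitation, nitrocellulose filtration and scintillation counting.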

In assay [1] the test system is farnesylated proteins F1, F2 and F3 in Met18b-2 cells. In words: Inhibition of intracellular farnesylation in intact Met18b-2 cells, Triton-soluble proteins F1, F2, F3. Type of assay: cell-based, Chinese hamster. The settings on record: Cricetulus griseus, read-out: EC 90% "B isomer". The text has this: To study farnesylation in intact cells we used Met18b-2 cells, a line of Chinese hamster ovary (CHO) cells that takes up [3H]mevalonate efficiently (see Faust, J., and Krieger, M. J. Biol. Chem. 262, 1966 (1987)) owing to the production of a mevalonate transport protein (see Kim, C. M., Goldstein, J. L., Brown, M. S. J. Biol. Chem. 267, 23113 (1992)). The [3H]mevalonate is converted by the cells into [3H]farnesyl pyrophosphate and [3H]geranylgeranyl pyrophosphate, which are then attached to proteins (Kim, C. M., Goldstein, J. L., Brown, M. S. J. Biol. Chem. 267, 23113 (1992)). In the assay, stock cultures of Met18b-2 cells were seeded at a density of 3-105 cells per 60 mm dish in 3 ml of medium A (Dulbecco's modified Eagle medium/Ham's F12 medium (1:1, v/v) containing 100 U/ml penicillin and 100 μg/ml streptomycin) supplemented with 5% (v/v) fetal calf serum (FCS). On day 3, each monolayer was refed with 1 ml medium A supplemented with 1% FCS (dialyzed against 0.15 M NaCl). At this point the cells were treated with 100 μM compactin (see Brown, M. S., Faust, J. R., Goldstein, J. L., Kaneko, I., and Endo, A. J. Biol. Chem. 253, 1121 (1978)) which blocks the synthesis of unlabeled mevalonate within the cells. Each compound was dissolved at 25 mM in DMSO/10 mM DTT immediately before use and 10 μl of this solution added directly. After 2 hr incubation at 37° C., each monolayer received 100 μCi [3H]mevalonate (60 Ci/mmol, American Radiolabeled Chemicals, Inc.) added in 100 μl of the medium A, and the incubation continued for 4 hr. The cells were harvested by rinsing three times with 3 ml of 50 mM Tris-HCl/0.15 M NaCl (pH 7.5). 300 μl of lysis buffer (0.5X Dulbecco's phosphate-buffered saline containing 1% Triton X-100, 5 μg/ml leupeptin, 5 μg/ml pepstatin, 0.5 mM phenylmethylsulfonyl fluoride, and 0.05 U/ml aprotinin) was added to each monolayer. After incubation on ice for 5 mon, the lysates were centrifuged 30 sec in a microfuge at 12,000 g. The resulting supernatant was tranferred to a new tube, and each pellet was resuspended in 60 μl of lysis buffer. Protein concentrations were determined using the BCA protein assay reagent (Pierce) according to the manufacturer's instructions. Detergent-soluble (supernatant) and -insoluble (pellet) samples were mixed with 2X SDS sample buffer (see Laemmli, U. K. Nature 227, 680 (1970)) and heated at 95° C. for 5 min before electrophoresis. Each lane contained 90 μg protein, and was run on a 12.5% SDS-polyacrylamide gel. The gel was dried, treated with ENTENSIFY (NEN-DuPont), and exposed to Kodak XOMAT-AR film for 9 h at -80° C. to allow visualization of all prenylated proteins. Migration of [14C]methylated molecular weight standards (Amersham) were used as markers.
The results of this assay are shown in FIG. 3, using a final concentration of 250 μM for each inhibitor. […] As shown in the figure, none of the control peptides or control benzodiazepine-peptideomimetics altered the prenylation of proteins in intact cells.
Using the same cells and procedures followed above for Example 125, we measured the dose dependence upon the inhibition of farnesylation in intact cells. […] Compound 37B inhibited the famesylation of F1-3 detectably at 10 μM, and almost completely at 25 μM.
In this manner, it is possible to obtain data regarding the comparative potency of these inhibitors upon the level of intracellular farnesylation. We have chosen to report the EC90% values for these inhibitors as the concentration required for a reduction in the Triton- soluble labelling (denoted F-1, F-2, and F-3) to 90% of control cells (untreated).

Where [2] appears, read: diastereomer A, read-out: EC50 (μM) "A".
The mark [3] stands for this setting: diastereomer B, read-out: EC50 (μM) "B".

Like-named read-outs stand apart in the source and are kept apart here.

Sequence of CAAX farnesyltransferase (Q02293 whole entry, one chain of several): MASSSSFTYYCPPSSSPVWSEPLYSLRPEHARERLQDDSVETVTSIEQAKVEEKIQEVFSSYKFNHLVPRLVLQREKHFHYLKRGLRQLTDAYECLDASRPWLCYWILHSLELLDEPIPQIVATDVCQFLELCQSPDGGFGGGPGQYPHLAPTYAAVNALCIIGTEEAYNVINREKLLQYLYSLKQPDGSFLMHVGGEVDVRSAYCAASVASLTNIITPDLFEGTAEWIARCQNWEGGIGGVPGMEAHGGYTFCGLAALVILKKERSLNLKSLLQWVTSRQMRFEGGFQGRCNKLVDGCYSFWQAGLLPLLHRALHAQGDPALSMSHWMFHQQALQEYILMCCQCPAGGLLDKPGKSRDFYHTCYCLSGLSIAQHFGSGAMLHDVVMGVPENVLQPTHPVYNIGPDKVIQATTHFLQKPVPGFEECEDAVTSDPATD

For the compound `CN(C(=O)[C@@H](N)CS)C1N=C(c2ccccc2)c2cc(Cl)ccc2N(Cc2ccc(C#N)cc2)C1=O` (stereo partly drawn) [compound 101, N-[[3-[(2-amino-3-mercapto-1-oxopropyl)methylamino]-2,3-dihydro-2-oxo-5-phenyl-7-chloro-1H-1,4-benzodiazepin-1-yl]methyl]4-benzonitrile], the results for the EC50 on CAAX farnesyltransferase (setting [2]) and at CAAX farnesyltransferase (setting [3]) were 3 µM and 0.0009 µM, respectively. Besides, in assay [1], the EC90 worked out at 20 µM.
As to `CN(C(=O)[C@@H](N)CS)C1N=C(c2ccccc2)c2cc(Cl)ccc2N(Cc2ccc(C(F)(F)F)cc2)C1=O` (stereo partly drawn) [compound 106, N-[[3-[(2-amino-3-mercapto-1-oxopropyl)methylamino]-2,3-dihydro-2-oxo-5-phenyl-7-chloro-1H-1,4-benzodiazepin-1-yl]methyl]-4-trifluoromethylbenzene], the EC50 (usually the concentration at which the effect is half-maximal) at CAAX farnesyltransferase (setting [2]) was 0.65 µM; on CAAX farnesyltransferase (setting [3]), 0.018 µM. Moreover, the EC90 in assay [1] is 50 µM.
Consider `CN(C(=O)[C@@H](N)CS)C1N=C(c2ccccc2)c2cc(Cl)ccc2N(Cc2ccc(F)cc2)C1=O` (stereo partly drawn) [compound 108, N-[[3-[(2-amino-3-mercapto-1-oxopropyl)methylamino]-2,3-dihydro-2-oxo-5-phenyl-7-chloro-1H-1,4-benzodiazepin-1-yl]methyl]-4-fluorobenzene], for which the concentration giving a half-maximal response (EC50) at CAAX farnesyltransferase (setting [2]) and at CAAX farnesyltransferase (setting [3]) was 0.0018 µM each time. The EC90 in assay [1] came to 50 µM.
For `CCOC(=O)[C@H](CCSC)NC(=O)CN1C(=O)C(N(C)C(=O)C2CSC(C)N2)N=C(c2ccccc2)c2ccccc21` (stereo partly drawn) [compound 109, N-[[3-[(2-methylthiazolidine-4-carboxyl)methylamino]-2,3-dihydro-2-oxo-5-phenyl-1H-1,4-benzodiazepin-1-yl]acetyl]-L-methionine ethyl ester], the EC50 on CAAX farnesyltransferase (setting [2]) came out at 3.1 µM; on CAAX farnesyltransferase (setting [3]), 0.1 µM. The EC90 in assay [1] is 10 µM.
Taken in the same sequence, the figures for `COC(=O)[C@H](CCSC)NC(=O)CN1C(=O)C(N(C)C(=O)[C@@H](N)CSSC(C)(C)C)N=C(c2ccccc2)c2ccccc21` (stereo partly drawn) [compound 110, N-[[3-[(2-amino-3-tert-butylthiomercapto-1-oxopropyl)methylamino]-2,3-dihydro-2-oxo-5-phenyl-1H-1,4-benzodiazepin-1-yl]acetyl]-L-methionine methyl ester] were over 1.5 µM, over 1.5 µM and 10 µM.
Turning to `CSCC[C@H](NC(=O)CN1C(=O)C(N(C)C(=O)[C@@H](N)CSSC(C)(C)C)N=C(c2ccccc2)c2cc(Cl)ccc21)C(=O)OC1CCCCC1` (stereo partly drawn) [compound 111, N-[[3-[(2-amino-3-tert-butylthiomercapto-1-oxopropyl)methylamino]-2,3-dihydro-2-oxo-5-phenyl-7-chloro-1H-1,4-benzodiazepin-1-yl]acetyl]-L-methionine cyclohexyl ester], the EC50 at CAAX farnesyltransferase (setting [2]) was over 3 µM; at CAAX farnesyltransferase (setting [3]), 1.4 µM. Also, the EC90 in assay [1] was determined as 2 µM.
Consider `CSCC[C@H](NC(=O)CN1C(=O)C(N(C)C(=O)[C@@H](N)CSSC(C)(C)C)N=C(c2ccccc2)c2ccccc21)C(=O)OC1CCCCC1` (stereo partly drawn) [compound 112, N-[[3-[(2-amino-3-tert-butylthiomercapto-1-oxopropyl)methylamino]-2,3-dihydro-2-oxo-5-phenyl-1H-1,4-benzodiazepin-1-yl]acetyl]-L-methionine cyclohexyl ester], for which the EC50 at CAAX farnesyltransferase (setting [3]) was 0.2 µM. Also, the EC90 in assay [1] is 4 µM.
With `CC(C)C[C@H](NC(=O)CN1C(=O)C(N(C)C(=O)[C@@H](N)CSSC(C)(C)C)N=C(c2ccccc2)c2cc(Cl)ccc21)c1nnn[nH]1` (stereo partly drawn) [compound 114, N-[[3-[(2-amino-3-tert-butylthiomercapto-1-oxopropyl)methylamino]-2,3-dihydro-2-oxo-5-phenyl-7-chloro-1H-1,4-benzodiazepin-4-yl]acetyl]-L-leucine tetrazole], at CAAX farnesyltransferase (setting [3]), the EC50 stood at 0.12 µM. The EC90 in assay [1] stood at 30 µM.
On to `CN(C(=O)[C@@H](N)CSSC(C)(C)C)C1N=C(c2ccccc2)c2cc(Cl)ccc2N(CC(=O)N[C@@H](Cc2ccccc2)C(N)=O)C1=O` (stereo partly drawn) [compound 115, N-[[3-[(2-amino-3-tert-butylthiomercapto-1-oxopropyl)methylamino]-2,3-dihydro-2-oxo-5-phenyl-7-chloro-1H-1,4-benzazepin-1-yl]acetyl]-L-phenylalanine amide], for which the concentration for a half-maximal effect (EC50) on CAAX farnesyltransferase (setting [2]) was over 3 µM; on CAAX farnesyltransferase (setting [3]) it was 0.1 µM. Further, the EC90 in assay [1] stood at 50 µM.
With `CSCC[C@H](NC(=O)CN1C(=O)C(N(C)C(=O)[C@@H](N)CSSC(C)(C)C)N=C(c2ccccc2)c2cc(Cl)ccc21)c1nnn[nH]1` (stereo partly drawn) [compound 116, N-[[3-[(2-amino-3-tert-butylthiomercapto-1-oxopropyl)methylamino]-2,3-dihydro-2-oxo-5-phenyl-7-chloro-1H-1,4-benzodiazepin-1-yl]acetyl]-L-methionine tetrazole], the EC50 is over 3 µM at CAAX farnesyltransferase (setting [2]) and 0.03 µM at CAAX farnesyltransferase (setting [3]). Further, in assay [1], the EC90 was 60 µM.
As to `CN(C(=O)[C@@H](N)CSSC(C)(C)C)C1N=C(c2ccccc2)c2ccccc2N(CC(=O)N[C@@H](Cc2ccccc2)C(=O)OC2CCCCC2)C1=O` (stereo partly drawn) [compound 117, N-[[3-[(2-amino-3-tert-butylthiomercapto-1-oxopropyl)methylamino]-2,3-dihydro-2-oxo-5-phenyl-1H-1,4-benzodiazepin-1-yl]acetyl]-L-phenylalanine cyclohexyl ester], at CAAX farnesyltransferase (EC50 (μM) "B", diastereomer B), the EC50 was found to be 1.6 µM. Moreover, in assay [1], the EC90 was 3 µM.
With `CN(C(=O)[C@@H](N)CSSC(C)(C)C)C1N=C(c2ccccc2)c2cc(Cl)ccc2N(CC(=O)N[C@@H](Cc2ccccc2)c2nnn[nH]2)C1=O` (stereo partly drawn) [compound 119, N-[[3-[(2-amino-3-tert-butylthiomercapto-1-oxopropyl)methylamino]-2,3-dihydro-2-oxo-5-phenyl-7-chloro-1H-1,4-benzodiazepin-1-yl]acetyl]-L-phenylalanine tetrazole], the values for the 50% effective concentration (EC50) on CAAX farnesyltransferase (setting [2]) and on CAAX farnesyltransferase (setting [3]) were over 3 µM and 0.017 µM, respectively. Moreover, the EC90 in assay [1] stood at 30 µM.
On to `CN(C(=O)[C@@H](N)CSSC(C)(C)C)C1N=C(c2ccccc2)c2cc(Cl)ccc2N(CC(=O)N[C@@H](Cc2ccccc2)C(=O)OC2CCCCC2)C1=O` (stereo partly drawn) [compound 120, N-[[3-[(2-amino-3-tert-butylthiomercapto-1-oxopropyl)methylamino]-2,3-dihydro-2-oxo-5-phenyl-7-chloro-1H-1,4-benzodiazepin-1-yl]acetyl]-L-phenylalanine cyclohexyl ester], for which the EC50 at CAAX farnesyltransferase (EC50 (μM) "A", diastereomer A) was over 3 µM; on CAAX farnesyltransferase (EC50 (μM) "B", diastereomer B) it was over 3 µM. Also, in assay [1], the EC90 is 5 µM.

The record behind these values is patent US5843941A, “Ras farnesyl transferase inhibitors” (Genentech, Inc., priority 1994, dated 1998).
